Among the data in patent publication US11052092B2, “N-{[2-(piperidin-1-yl)phenyl](phenyl)methyl}-2-(3-oxo-3,4-dihydro-2H-1,4-benzoxazin-7-yl)acetamide derivatives and related compounds as ROR-gamma modulators for treating autoimmune diseases” (Genfit, priority 2017, dated 2021) are IC50 values, retold here.

The structures appear in SMILES notation.

This experiment deals with T1, human RORγt (Homo sapiens, UniProt P51449).
T1 construct: the full-length cDNA of human RORγt; expressed in transfected cells; host or cells: COS-7 (monkey kidney)
T1 sequence (P51449 1-497 isoform P51449-2): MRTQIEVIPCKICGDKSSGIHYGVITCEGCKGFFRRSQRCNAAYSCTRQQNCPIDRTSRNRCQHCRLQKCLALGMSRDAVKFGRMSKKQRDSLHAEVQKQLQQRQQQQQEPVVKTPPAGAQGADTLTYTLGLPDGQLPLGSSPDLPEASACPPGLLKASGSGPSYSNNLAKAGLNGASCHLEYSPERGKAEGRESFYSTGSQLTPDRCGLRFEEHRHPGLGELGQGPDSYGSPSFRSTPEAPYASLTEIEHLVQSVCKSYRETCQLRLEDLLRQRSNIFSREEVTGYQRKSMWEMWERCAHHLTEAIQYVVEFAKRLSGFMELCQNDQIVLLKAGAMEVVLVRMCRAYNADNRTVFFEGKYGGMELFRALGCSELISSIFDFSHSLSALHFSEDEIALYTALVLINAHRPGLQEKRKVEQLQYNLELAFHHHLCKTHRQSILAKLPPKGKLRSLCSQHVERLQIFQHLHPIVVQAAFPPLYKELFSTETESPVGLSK
The experiment in a line: RORE Luciferase/RORγt transactivation assay. As to conditions: COS-7 cells transfected with human IL-17 promoter luciferase reporter and RORγt plasmid; 20 h with compound; read-out: IC50, RORγt activity inhibition. In kind it is cell-based. The method, then: It is well known that RORγ binds to a conserved non-coding sequence (CNS) enhancer element in the IL-17 promoter.
Culture medium was changed every 2 days.
The 4.3 Kb human IL-17 promoter containing the RORγ-specific CNS enhancer element was PCR amplified from human genomic DNA and cloned into a pGL3-TKLuc2Cp reporter plasmid.
The luciferase reporter plasmid and the RORγt overexpression plasmid were transfected into COS-7 cell line using 4 μLJetPEI™/μg of DNA. Briefly, 150 ng of DNA (ration ½ between RORE-Tk Luc2Cp and cDNA RORγt or the empty vector for the negative control) was served to transfect adherent COS-7 cells in a […] culture flask, in complete medium (see cos-7 cell line culture).
Cells were then detached (using trypsin) and washed by centrifugation at 300 g for 10 minutes. Cell pellet was resuspended in serum free/phenol red free DMEM and seeded in 384 well plates at a density of 10000 cells/well and then incubated for 4 h at 37° C.
Compounds were dissolved in 100% DMSO to obtain 10 mM stock solutions. For each compound, test concentrations were diluted in serum free/phenol red free DMEM using the Genesis Freedom 200™ (TECAN) and added to the cells to obtain a 0.3% DMSO final concentration (in a final volume of 40 μL per well).
The luciferase activity was then measured with 40 μL/well steady-Glo Luciferase assay system (Promega, Madison, Wis.) and after incubation at room temperature for 30 minutes. The luminescence was estimated using the Ultra384 reader (TECAN). Data were collected and analyzed using GraphPad Prism software (GraphPad Software V5.02, San Diego Calif. USA). IC50 in μM and Emax in % were reported for each compound.
For orientation: A reporter such as luciferase makes a cellular process visible.
In general, IC50 refers to the concentration that inhibits the measured activity by half. Consider `CC(C)CC(NC(=O)Cc1ccc2c(c1)OCC(=O)N2)c1ccccc1N1CCCCC1` (stereo not shown) [Cpd. 6, N-{3-methyl-1-[2-(piperidin-1-yl)phenyl]butyl}-2-(3-oxo-3,4-dihydro-2H-1,4-benzoxazin-7-yl)acetamide], for which the IC50 was 1000 to 10000 nM.

`O=C1COc2ccc(CC(=O)NC(c3ccccc3)c3ccccc3N3CCCCC3)cc2N1` (stereo not shown) [Cpd. 13, 2-(3-oxo-3,4-dihydro-2H-1,4-benzoxazin-6-yl)-N-{phenyl[2-(piperidin-1-yl)phenyl]methyl}acetamide]: the IC50 was 1000 to 10000 nM.

On to `O=C1Cc2cc(CC(=O)NC(c3ccccc3)c3ccccc3N3CCOCC3)ccc2N1` (stereo not shown) [Cpd. 17, N-{[2-(morpholin-4-yl)phenyl](phenyl)methyl}-2-(2-oxo-2,3-dihydro-1H-indol-5-yl)acetamide], for which the IC50 fell in the range of 1000 to 10000 nM.

As to `Cc1ccc(C(NC(=O)Cc2ccc3c(c2)CC(=O)N3)c2ccc(C)o2)c(C)c1` (stereo not shown) [Cpd. 29, N-[(2,4-dimethylphenyl)(5-methylfuran-2-yl)methyl]-2-(2-oxo-2,3-dihydro-1H-indol-5-yl)acetamide], the 50% inhibitory concentration (IC50) lay in the range of 1000 to 10000 nM.

`Cc1ccc(C(NC(=O)Cc2ccc3c(c2)C(O)C(=O)N3)c2ccc(C)o2)c(N2CCCCC2)c1` (stereo not shown) [Cpd. 46, 2-(3-hydroxy-2-oxo-2,3-dihydro-1H-indol-5-yl)-N-{[4-methyl-2-(piperidin-1-yl)phenyl](5-methylfuran-2-yl)methyl}acetamide]: the IC50 is 100 to 1000 nM.

On to `Cc1ccc(C(NC(=O)Cc2ccc3c(c2)CCC3=O)c2ccc(C)o2)c(N2CCCCC2)c1` (stereo not shown) [Cpd. 51, N-{[4-methyl-2-(piperidin-1-yl)phenyl](5-methylfuran-2-yl)methyl}-2-(1-oxo-2,3-dihydro-1H-inden-5-yl)acetamide], for which the IC50 was in the range of 100 to 1000 nM.

Turning to `CC(C)=C1C(=O)Nc2ccc(CC(=O)NC(c3ccc(C)o3)c3ccc(C)cc3N3CCCCC3)cc21` (stereo not shown) [Cpd. 55, N-{[4-methyl-2-(piperidin-1-yl)phenyl](5-methylfuran-2-yl)methyl}-2-[2-oxo-3-(propan-2-ylidene)-2,3-dihydro-1H-indol-5-yl]acetamide], the half-maximal inhibitory concentration (IC50) was 100 to 1000 nM.

As to `Cc1ccc(C(NC(=O)C2(c3ccc4c(c3)CN(S(C)(=O)=O)C4)CC2)c2ccc(Cl)o2)c(C)c1` (stereo not shown) [Cpd. 56, N-[(5-chlorofuran-2-yl)(2,4-dimethylphenyl)methyl]-1-(2-methanesulfonyl-2,3-dihydro-1H-isoindol-5-yl)cyclopropane-1-carboxamide], the IC50 lay in the range of 10 to 100 nM.

With `Cc1ccc(C(NC(=O)C2(c3ccc4c(c3)CN(S(C)(=O)=O)C4)CC2)c2ccc(C)o2)c(C)c1` (stereo not shown) [Cpd. 65, N-[(2,4-dimethylphenyl)(5-methylfuran-2-yl)methyl]-1-(2-methanesulfonyl-2,3-dihydro-1H-isoindol-5-yl)cyclopropane-1-carboxamide], the IC50 was in the range of 10 to 100 nM.

On to `Cc1ccc(C(NC(=O)C2(c3ccc4[nH]cc(CCO)c4c3)CC2)c2ccc(C)o2)c(N2CCCCC2)c1` (stereo not shown) [Cpd. 66, 1-[3-(2-hydroxyethyl)-1H-indol-5-yl]-N-{[4-methyl-2-(piperidin-1-yl)phenyl](5-methylfuran-2-yl)methyl}cyclopropane-1-carboxamide], for which the half-maximal inhibitory concentration (IC50) lay in the range of 10 to 100 nM.

Turning to `Cc1ccc(C(NC(=O)Cc2ccc3c(c2)C(=O)CC3)c2ccc(C)o2)c(N2CCCCC2)c1` (stereo not shown) [Cpd. 67, N-{[4-methyl-2-(piperidin-1-yl)phenyl](5-methylfuran-2-yl)methyl}-2-(3-oxo-2,3-dihydro-1H-inden-5-yl)acetamide], the IC50 was 100 to 1000 nM.

For the compound `Cc1ccc(C(NC(=O)C2(c3ccc4c(ccn4CCO)c3)CC2)c2ccc(C)o2)c(C)c1` (stereo not shown) [Cpd. 69, N-[(2,4-dimethylphenyl)(5-methylfuran-2-yl)methyl]-1-[1-(2-hydroxyethyl)-1H-indol-5-yl]cyclopropane-1-carboxamide], the IC50 was in the range of 10 to 100 nM.

In the case of `Cc1ccc(C(NC(=O)C2(c3ccc4c(c3)CS(=O)(=O)N4C)CC2)c2ccc(C)o2)c(C)c1` (stereo not shown) [Cpd. 70, N-[(2,4-dimethylphenyl)(5-methylfuran-2-yl)methyl]-1-(1-methyl-2,2-dioxo-1,3-dihydro-2,1-benzothiazol-5-yl)cyclopropane-1-carboxamide], the IC50 is 10 to 100 nM.

`Cc1ccc(C(NC(=O)Cc2ccc3c(c2)C(O)CC3)c2ccc(C)o2)c(N2CCCCC2)c1` (stereo not shown) [Cpd. 85, 2-(3-hydroxy-2,3-dihydro-1H-inden-5-yl)-N-{[4-methyl-2-(piperidin-1-yl)phenyl](5-methylfuran-2-yl)methyl}acetamide]: the IC50 fell in the range of 10 to 100 nM.

With `Cc1ccc(C(NC(=O)C2(c3ccc4c(c3)CCN4C(=O)C3CC3)CC2)c2ccc(C)o2)c(C)c1` (stereo not shown) [Cpd. 95, 1-(1-cyclopropanecarbonyl-2,3-dihydro-1H-indol-5-yl)-N-[(2,4-dimethylphenyl)(5-methylfuran-2-yl)methyl]cyclopropane-1-carboxamide], the half-maximal inhibitory concentration (IC50) lay within 10 to 100 nM.

As to `Cc1ccc(C(NC(=O)Cc2ccc3c(ccn3CCC(=O)OC(C)(C)C)c2)c2ccc(C)o2)c(N2CCCCC2)c1` (stereo not shown) [Cpd. 96, tert-butyl 3-{5-[({[4-methyl-2-(piperidin-1-yl)phenyl](5-methylfuran-2-yl)methyl}carbamoyl)methyl]-1H-indol-1-yl}propanoate], the IC50 is 100 to 1000 nM.

Turning to `COc1ccc(C(NC(=O)Cc2ccc3c(ccn3CCC(=O)OC(C)(C)C)c2)c2ccc(C)o2)c(N2CCCCCC2)c1` (stereo not shown) [Cpd. 110, tert-butyl 3-{5-[({[2-(azepan-1-yl)-4-methoxyphenyl](5-methylfuran-2-yl)methyl}carbamoyl)methyl]-1H-indol-1-yl}propanoate], the concentration for half-maximal inhibition (IC50) lay within 100 to 1000 nM.

For the compound `Cc1ccc(C(NC(=O)Cc2ccc3c(ccn3CC3CCOCC3)c2)c2ccc(C)o2)c(N2CCCCC2)c1` (stereo not shown) [Cpd. 113, N-{[4-methyl-2-(piperidin-1-yl)phenyl](5-methylfuran-2-yl)methyl}-2-[1-(oxan-4-ylmethyl)-1H-indol-5-yl]acetamide], the 50% inhibitory concentration (IC50) lay within 10 to 100 nM.

`Cc1ccc(C(NC(=O)Cc2ccc3c(c2)CCN3C(=O)C2CC2)c2ccc(C)o2)c(N2CCCCC2)c1` (stereo not shown) [Cpd. 123, 2-(1-cyclopropanecarbonyl-2,3-dihydro-1H-indol-5-yl)-N-{[4-methyl-2-(piperidin-1-yl)phenyl](5-methylfuran-2-yl)methyl}acetamide]: the 50% inhibitory concentration (IC50) was below 10 nM.

Consider `Cc1ccc(C(NC(=O)C2(c3ccc4c(c3)OCS(=O)(=O)N4)CC2)c2ccc(C)o2)c(Br)c1` (stereo not shown) [Cpd. 131, N-[(2-bromo-4-methylphenyl)(5-methylfuran-2-yl)methyl]-1-(2,2-dioxo-1,3-dihydro-4,2,1-benzoxathiazin-6-yl)cyclopropane-1-carboxamide], for which the IC50 lay within 10 to 100 nM.

For the compound `CCN1c2ccc(C3(C(=O)NC(c4ccc(C)o4)c4ccc(C)cc4C)CC3)cc2CS1(=O)=O` (stereo not shown) [Cpd. 132, N-[(2,4-dimethylphenyl)(5-methylfuran-2-yl)methyl]-1-(1-ethyl-2,2-dioxo-1,3-dihydro-2,1-benzothiazol-5-yl)cyclopropane-1-carboxamide], the half-maximal inhibitory concentration (IC50) is 10 to 100 nM.

For the compound `Cc1ccc(C(NC(=O)C2(c3ccc4c(c3)CS(=O)(=O)N4C)CC2)c2ccc(C)o2)c(N(C)C)c1` (stereo not shown) [Cpd. 133, N-{[2-(dimethylamino)-4-methylphenyl](5-methylfuran-2-yl)methyl}-1-(1-methyl-2,2-dioxo-1,3-dihydro-2,1-benzothiazol-5-yl)cyclopropane-1-carboxamide], the IC50 fell in the range of 10 to 100 nM.

Take `Cc1ccc(C(NC(=O)C2(c3ccc4c(c3)OCC(=O)N4)CC2)c2ccc(Cl)o2)c(C)c1` (stereo not shown) [Cpd. 134, N-[(5-chlorofuran-2-yl)(2,4-dimethylphenyl)methyl]-1-(3-oxo-3,4-dihydro-2H-1,4-benzoxazin-7-yl)cyclopropane-1-carboxamide]: the IC50 is below 10 nM.

With `Cc1ccc(C(NC(=O)C2(c3ccc4c(c3)OCC(=O)N4)CC2)c2ccc(C)o2)c(Br)c1` (stereo not shown) [Cpd. 135, N-[(2-bromo-4-methylphenyl)(5-methylfuran-2-yl)methyl]-1-(3-oxo-3,4-dihydro-2H-1,4-benzoxazin-7-yl)cyclopropane-1-carboxamide], the 50% inhibitory concentration (IC50) was below 10 nM.

As to `Cc1ccc(C(NC(=O)C2(c3ccc4c(c3)OCC(=O)N4)CC2)c2cccc(C)n2)c(C)c1` (stereo not shown) [Cpd. 136, N-[(2,4-dimethylphenyl)(6-methylpyridin-2-yl)methyl]-1-(3-oxo-3,4-dihydro-2H-1,4-benzoxazin-7-yl)cyclopropane-1-carboxamide], the IC50 was 10 to 100 nM.
